In PubChem BioAssay (NCI):
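Assay format: 96-well plates, 48-hour exposure. Definition used: TGI = concentration required for complete inhibition of growth.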

tested on: RXF 393 renal; test: NCI tumour cell line growth inhibition, 48 h

Compound	TGI [µM]
O=C1OCC2C1C1c3ccccc3C(O)c3ccccc3C21 (configuration not stated)	> 100
CC(C)N(CCn1c2c3ccccc3ccc2c2oc(=O)c3ccccc3c21)C(C)C	> 100

tested on: OVCAR-3 ovarian; test: NCI tumour cell line growth inhibition, 48 h

Compound	TGI [µM]
Cc1c(/C=N/NC(=O)c2ccc(Cl)cc2)c(=O)n(-c2ccccc2)n1C	> 100
CN[C@@H](C)[C@@H](NC)c1ccccc1	> 100
O=C1OCC2C1C1c3ccccc3C(O)c3ccccc3C21 (configuration not stated)	> 100
CC(C)N(CCn1c2c3ccccc3ccc2c2oc(=O)c3ccccc3c21)C(C)C	> 100

tested on: HCT-116 colon; test: NCI tumour cell line growth inhibition, 48 h

Compound	TGI [µM]
Cc1c(/C=N/NC(=O)c2ccc(Cl)cc2)c(=O)n(-c2ccccc2)n1C	> 100
CN[C@@H](C)[C@@H](NC)c1ccccc1	> 100
O=C1OCC2C1C1c3ccccc3C(O)c3ccccc3C21 (configuration not stated)	> 100
CC(C)N(CCn1c2c3ccccc3ccc2c2oc(=O)c3ccccc3c21)C(C)C	> 100

tested on: 786-0 renal; test: NCI tumour cell line growth inhibition, 48 h

Compound	TGI [µM]
Cc1c(/C=N/NC(=O)c2ccc(Cl)cc2)c(=O)n(-c2ccccc2)n1C	> 100
CN[C@@H](C)[C@@H](NC)c1ccccc1	> 100
O=C1OCC2C1C1c3ccccc3C(O)c3ccccc3C21 (configuration not stated)	> 100
CC(C)N(CCn1c2c3ccccc3ccc2c2oc(=O)c3ccccc3c21)C(C)C	> 100

tested on: COLO 205 colon; test: NCI tumour cell line growth inhibition, 48 h

Compound	TGI [µM]
Cc1c(/C=N/NC(=O)c2ccc(Cl)cc2)c(=O)n(-c2ccccc2)n1C	> 100
CN[C@@H](C)[C@@H](NC)c1ccccc1	> 100
O=C1OCC2C1C1c3ccccc3C(O)c3ccccc3C21 (configuration not stated)	> 100
CC(C)N(CCn1c2c3ccccc3ccc2c2oc(=O)c3ccccc3c21)C(C)C	> 100

tested on: SF-539 CNS; test: NCI tumour cell line growth inhibition, 48 h

Compound	TGI [µM]
Cc1c(/C=N/NC(=O)c2ccc(Cl)cc2)c(=O)n(-c2ccccc2)n1C	> 100
CN[C@@H](C)[C@@H](NC)c1ccccc1	> 100
O=C1OCC2C1C1c3ccccc3C(O)c3ccccc3C21 (configuration not stated)	> 100
CC(C)N(CCn1c2c3ccccc3ccc2c2oc(=O)c3ccccc3c21)C(C)C	> 74.1

tested on: LXFL 529 NSCLC; test: NCI tumour cell line growth inhibition, 48 h

Compound	TGI [µM]
Cc1c(/C=N/NC(=O)c2ccc(Cl)cc2)c(=O)n(-c2ccccc2)n1C	> 100
CN[C@@H](C)[C@@H](NC)c1ccccc1	> 100
O=C1OCC2C1C1c3ccccc3C(O)c3ccccc3C21 (configuration not stated)	> 100
CC(C)N(CCn1c2c3ccccc3ccc2c2oc(=O)c3ccccc3c21)C(C)C	> 100

tested on: MALME-3M melanoma; test: NCI tumour cell line growth inhibition, 48 h

Compound	TGI [µM]
Cc1c(/C=N/NC(=O)c2ccc(Cl)cc2)c(=O)n(-c2ccccc2)n1C	> 100
O=C1OCC2C1C1c3ccccc3C(O)c3ccccc3C21 (configuration not stated)	> 100
CC(C)N(CCn1c2c3ccccc3ccc2c2oc(=O)c3ccccc3c21)C(C)C	> 100

tested on: SNB-75 CNS; test: NCI tumour cell line growth inhibition, 48 h

Compound	TGI [µM]
Cc1c(/C=N/NC(=O)c2ccc(Cl)cc2)c(=O)n(-c2ccccc2)n1C	> 100
CN[C@@H](C)[C@@H](NC)c1ccccc1	> 100
O=C1OCC2C1C1c3ccccc3C(O)c3ccccc3C21 (configuration not stated)	> 100
CC(C)N(CCn1c2c3ccccc3ccc2c2oc(=O)c3ccccc3c21)C(C)C	75.9

tested on: DMS 273 small cell lung; test: NCI tumour cell line growth inhibition, 48 h

Compound	TGI [µM]
Cc1c(/C=N/NC(=O)c2ccc(Cl)cc2)c(=O)n(-c2ccccc2)n1C	> 100
CN[C@@H](C)[C@@H](NC)c1ccccc1	> 100

tested on: MOLT-4 leukemia; test: NCI tumour cell line growth inhibition, 48 h

Compound	TGI [µM]
Cc1c(/C=N/NC(=O)c2ccc(Cl)cc2)c(=O)n(-c2ccccc2)n1C	> 100
CN[C@@H](C)[C@@H](NC)c1ccccc1	> 100
O=C1OCC2C1C1c3ccccc3C(O)c3ccccc3C21 (configuration not stated)	> 100
CC(C)N(CCn1c2c3ccccc3ccc2c2oc(=O)c3ccccc3c21)C(C)C	> 100

tested on: UO-31 renal; test: NCI tumour cell line growth inhibition, 48 h

Compound	TGI [µM]
Cc1c(/C=N/NC(=O)c2ccc(Cl)cc2)c(=O)n(-c2ccccc2)n1C	> 100
CN[C@@H](C)[C@@H](NC)c1ccccc1	> 100
O=C1OCC2C1C1c3ccccc3C(O)c3ccccc3C21 (configuration not stated)	> 100
CC(C)N(CCn1c2c3ccccc3ccc2c2oc(=O)c3ccccc3c21)C(C)C	> 100

tested on: OVCAR-4 ovarian; test: NCI tumour cell line growth inhibition, 48 h

Compound	TGI [µM]
Cc1c(/C=N/NC(=O)c2ccc(Cl)cc2)c(=O)n(-c2ccccc2)n1C	> 100
O=C1OCC2C1C1c3ccccc3C(O)c3ccccc3C21 (configuration not stated)	> 100
CC(C)N(CCn1c2c3ccccc3ccc2c2oc(=O)c3ccccc3c21)C(C)C	> 100

tested on: RPMI-8226 leukemia; test: NCI tumour cell line growth inhibition, 48 h

Compound	TGI [µM]
Cc1c(/C=N/NC(=O)c2ccc(Cl)cc2)c(=O)n(-c2ccccc2)n1C	> 100
CN[C@@H](C)[C@@H](NC)c1ccccc1	> 100
O=C1OCC2C1C1c3ccccc3C(O)c3ccccc3C21 (configuration not stated)	> 100
CC(C)N(CCn1c2c3ccccc3ccc2c2oc(=O)c3ccccc3c21)C(C)C	> 100

tested on: K-562 leukemia; test: NCI tumour cell line growth inhibition, 48 h

Compound	TGI [µM]
Cc1c(/C=N/NC(=O)c2ccc(Cl)cc2)c(=O)n(-c2ccccc2)n1C	> 100
CN[C@@H](C)[C@@H](NC)c1ccccc1	> 100
O=C1OCC2C1C1c3ccccc3C(O)c3ccccc3C21 (configuration not stated)	> 100
CC(C)N(CCn1c2c3ccccc3ccc2c2oc(=O)c3ccccc3c21)C(C)C	> 100

tested on: KM12 colon; test: NCI tumour cell line growth inhibition, 48 h

Compound	TGI [µM]
Cc1c(/C=N/NC(=O)c2ccc(Cl)cc2)c(=O)n(-c2ccccc2)n1C	> 100
CN[C@@H](C)[C@@H](NC)c1ccccc1	> 100
O=C1OCC2C1C1c3ccccc3C(O)c3ccccc3C21 (configuration not stated)	> 100
CC(C)N(CCn1c2c3ccccc3ccc2c2oc(=O)c3ccccc3c21)C(C)C	> 100

tested on: XF 498 CNS; test: NCI tumour cell line growth inhibition, 48 h

Compound	TGI [µM]
O=C1OCC2C1C1c3ccccc3C(O)c3ccccc3C21 (configuration not stated)	> 100
CC(C)N(CCn1c2c3ccccc3ccc2c2oc(=O)c3ccccc3c21)C(C)C	> 100

tested on: SK-MEL-5 melanoma; test: NCI tumour cell line growth inhibition, 48 h

Compound	TGI [µM]
CN[C@@H](C)[C@@H](NC)c1ccccc1	> 100
O=C1OCC2C1C1c3ccccc3C(O)c3ccccc3C21 (configuration not stated)	> 100

tested on: IGROV1 ovarian; test: NCI tumour cell line growth inhibition, 48 h

Compound	TGI [µM]
Cc1c(/C=N/NC(=O)c2ccc(Cl)cc2)c(=O)n(-c2ccccc2)n1C	> 100
CN[C@@H](C)[C@@H](NC)c1ccccc1	> 100
O=C1OCC2C1C1c3ccccc3C(O)c3ccccc3C21 (configuration not stated)	> 100
CC(C)N(CCn1c2c3ccccc3ccc2c2oc(=O)c3ccccc3c21)C(C)C	> 100

tested on: CAKI-1 renal; test: NCI tumour cell line growth inhibition, 48 h

Compound	TGI [µM]
CN[C@@H](C)[C@@H](NC)c1ccccc1	> 100
O=C1OCC2C1C1c3ccccc3C(O)c3ccccc3C21 (configuration not stated)	> 100
CC(C)N(CCn1c2c3ccccc3ccc2c2oc(=O)c3ccccc3c21)C(C)C	> 100

tested on: SK-OV-3 ovarian; test: NCI tumour cell line growth inhibition, 48 h

Compound	TGI [µM]
Cc1c(/C=N/NC(=O)c2ccc(Cl)cc2)c(=O)n(-c2ccccc2)n1C	> 100
CN[C@@H](C)[C@@H](NC)c1ccccc1	> 100
O=C1OCC2C1C1c3ccccc3C(O)c3ccccc3C21 (configuration not stated)	> 100
CC(C)N(CCn1c2c3ccccc3ccc2c2oc(=O)c3ccccc3c21)C(C)C	> 100

tested on: HCT-15 colon; test: NCI tumour cell line growth inhibition, 48 h

Compound	TGI [µM]
Cc1c(/C=N/NC(=O)c2ccc(Cl)cc2)c(=O)n(-c2ccccc2)n1C	> 100
CN[C@@H](C)[C@@H](NC)c1ccccc1	> 100
O=C1OCC2C1C1c3ccccc3C(O)c3ccccc3C21 (configuration not stated)	> 100
CC(C)N(CCn1c2c3ccccc3ccc2c2oc(=O)c3ccccc3c21)C(C)C	> 100

tested on: RXF-631 renal; test: NCI tumour cell line growth inhibition, 48 h

Compound	TGI [µM]
CN[C@@H](C)[C@@H](NC)c1ccccc1	> 100
O=C1OCC2C1C1c3ccccc3C(O)c3ccccc3C21 (configuration not stated)	> 100
CC(C)N(CCn1c2c3ccccc3ccc2c2oc(=O)c3ccccc3c21)C(C)C	> 100

tested on: EKVX NSCLC; test: NCI tumour cell line growth inhibition, 48 h

Compound	TGI [µM]
Cc1c(/C=N/NC(=O)c2ccc(Cl)cc2)c(=O)n(-c2ccccc2)n1C	> 100
CN[C@@H](C)[C@@H](NC)c1ccccc1	> 100
O=C1OCC2C1C1c3ccccc3C(O)c3ccccc3C21 (configuration not stated)	> 100
CC(C)N(CCn1c2c3ccccc3ccc2c2oc(=O)c3ccccc3c21)C(C)C	> 100

tested on: HOP-92 NSCLC; test: NCI tumour cell line growth inhibition, 48 h

Compound	TGI [µM]
Cc1c(/C=N/NC(=O)c2ccc(Cl)cc2)c(=O)n(-c2ccccc2)n1C	> 100
CN[C@@H](C)[C@@H](NC)c1ccccc1	> 100
O=C1OCC2C1C1c3ccccc3C(O)c3ccccc3C21 (configuration not stated)	> 100
CC(C)N(CCn1c2c3ccccc3ccc2c2oc(=O)c3ccccc3c21)C(C)C	> 92.3

tested on: SK-MEL-2 melanoma; test: NCI tumour cell line growth inhibition, 48 h

Compound	TGI [µM]
Cc1c(/C=N/NC(=O)c2ccc(Cl)cc2)c(=O)n(-c2ccccc2)n1C	> 100
O=C1OCC2C1C1c3ccccc3C(O)c3ccccc3C21 (configuration not stated)	> 100
CC(C)N(CCn1c2c3ccccc3ccc2c2oc(=O)c3ccccc3c21)C(C)C	> 100

tested on: NCI-H23 lung; test: NCI tumour cell line growth inhibition, 48 h

Compound	TGI [µM]
Cc1c(/C=N/NC(=O)c2ccc(Cl)cc2)c(=O)n(-c2ccccc2)n1C	> 100
CN[C@@H](C)[C@@H](NC)c1ccccc1	> 100
O=C1OCC2C1C1c3ccccc3C(O)c3ccccc3C21 (configuration not stated)	> 100
CC(C)N(CCn1c2c3ccccc3ccc2c2oc(=O)c3ccccc3c21)C(C)C	> 100

tested on: NCI-H460 lung; test: NCI tumour cell line growth inhibition, 48 h

Compound	TGI [µM]
Cc1c(/C=N/NC(=O)c2ccc(Cl)cc2)c(=O)n(-c2ccccc2)n1C	> 100
CN[C@@H](C)[C@@H](NC)c1ccccc1	> 100
O=C1OCC2C1C1c3ccccc3C(O)c3ccccc3C21 (configuration not stated)	> 100
CC(C)N(CCn1c2c3ccccc3ccc2c2oc(=O)c3ccccc3c21)C(C)C	> 100

tested on: SF-295 CNS; test: NCI tumour cell line growth inhibition, 48 h

Compound	TGI [µM]
Cc1c(/C=N/NC(=O)c2ccc(Cl)cc2)c(=O)n(-c2ccccc2)n1C	> 100
CN[C@@H](C)[C@@H](NC)c1ccccc1	> 100
O=C1OCC2C1C1c3ccccc3C(O)c3ccccc3C21 (configuration not stated)	> 100
CC(C)N(CCn1c2c3ccccc3ccc2c2oc(=O)c3ccccc3c21)C(C)C	> 95.1

tested on: UACC-257 melanoma; test: NCI tumour cell line growth inhibition, 48 h

Compound	TGI [µM]
Cc1c(/C=N/NC(=O)c2ccc(Cl)cc2)c(=O)n(-c2ccccc2)n1C	> 100
CN[C@@H](C)[C@@H](NC)c1ccccc1	> 100
O=C1OCC2C1C1c3ccccc3C(O)c3ccccc3C21 (configuration not stated)	> 100
CC(C)N(CCn1c2c3ccccc3ccc2c2oc(=O)c3ccccc3c21)C(C)C	> 100
